# Values of other authors in patent US20200181654A1, “AGLYCONE PRODUCTION PROMOTER” (priority 2016, published 2020).
# Conditions: after oral ingestion
row,SMILES,"maximum values of the plasma concentrations of the aglycones, relative to ingestion of the glycosides (daidzin, genistin)"
1,O=c1c(-c2ccc(O)cc2)coc2cc(O)ccc12 [daidzein],five times or greater
2,O=c1c(-c2ccc(O)cc2)coc2cc(O)cc(O)c12 [genistein],five times or greater
